Measured values reported in DBAASP.
Converted amounts (≈) assume the structure as drawn.

How the values were obtained:
Assay in all cases: ≥ marks a high value that may be exact or a test limit, other limits are often not marked, values filed in µg/mL are converted to µM
[1] = system: Bacillus subtilis ATCC 6051
[2] = system: Pseudomonas aeruginosa ATCC 27853
[3] = system: Salmonella enterica subsp. enterica serovar Typhimurium LT2
Escherichia coli D21 = system: Escherichia coli D21
Bacillus megaterium Bm11 = system: Bacillus megaterium Bm11
[4] = system: Micrococcus luteus ATCC 9341
[5] = system: Acinetobacter calcoaceticus Ac11
[6] = system: Candida albicans ATCC 18804
[7] = system: Escherichia coli ATCC 25922
[8] = system: Staphylococcus aureus ATCC 25923
[9] = system: Pseudomonas aeruginosa KCTC 1637
[10] = system: Escherichia coli KCTC 1682
[11] = system: Staphylococcus aureus KCTC 1621
[12] = system: Bacillus subtilis KCTC 1918
Proteus vulgaris = system: Proteus vulgaris
[13] = system: Bacillus megaterium KCTC 1096
[14] = system: Salmonella enterica subsp. enterica serovar Enteritidis MH91989
Pseudomonas aeruginosa = system: Pseudomonas aeruginosa
[15] = system: Klebsiella pneumoniae ATCC 700603
[16] = system: Staphylococcus epidermidis ATCC 12228
Escherichia coli J2210 = system: Escherichia coli J2210
Escherichia coli ML-35 = system: Escherichia coli ML-35
[17] = system: Escherichia coli JW0368 ΔsbmA
Klebsiella pneumoniae = system: Klebsiella pneumoniae
[18] = system: Salmonella enterica subsp. enterica serovar Typhimurium ATCC 14028
Acinetobacter baumannii = system: Acinetobacter baumannii
Escherichia coli = system: Escherichia coli
[19] = system: Serratia marcescens ATCC 8100
[20] = system: Enterococcus faecalis ATCC 29212
[21] = system: Acinetobacter baumannii ATCC 19606
[22] = system: Salmonella typhimurium SL1344
[23] = system: Escherichia coli JW2778 ΔygdD
Burkholderia cepacia = system: Burkholderia cepacia
Escherichia coli HB101 = system: Escherichia coli HB101
[24] = system: Stenotrophomonas maltophilia ATCC 13637
Escherichia coli JW0013 = system: Escherichia coli JW0013
[25] = system: Bacillus subtilis DSM 4181
Escherichia coli MC1041 = system: Escherichia coli MC1041
[26] = system: Salmonella enterica serovar Typhimurium
Escherichia coli JJ2489 = system: Escherichia coli JJ2489
Escherichia coli BW25113 = system: Escherichia coli BW25113
[27] = system: Staphylococcus epidermidis
[28] = system: Staphylococcus aureus SAP 0017
Escherichia coli UB1005 = system: Escherichia coli UB1005
[29] = system: Pseudomonas aeruginosa PAO1
Escherichia coli DC2 = system: Escherichia coli DC2
[30] = system: Pseudomonas aeruginosa H744
[31] = system: Salmonella enterica subsp. enterica serovar Typhimurium ATCC 14028s
[32] = system: Staphylococcus aureus R147
Candida albicans = system: Candida albicans
[33] = system: Pseudomonas aeruginosa H374
Escherichia coli KF130 = system: Escherichia coli KF130

## CC[C@H](C)[C@H](NC(=O)[C@H](CCCCN)NC(=O)[C@@H]1CCCN1C(=O)[C@@H](NC(=O)[C@H](CC(C)C)NC(=O)[C@H](C)NC(=O)[C@H](Cc1ccccc1)NC(=O)[C@H](Cc1ccccc1)NC(=O)CN)[C@@H](C)CC)C(=O)N[C@H](C(=O)N[C@@H](CO)C(=O)O)[C@@H](C)CC [GFFALIPKIIS]
[1]
  MIC: ≥ 100 µM
[2]
  MIC: > 100 µM
[3]
  MIC: ≥ 100 µM
Escherichia coli D21
  MIC: ≥ 100 µM
Bacillus megaterium Bm11
  MIC: ≥ 100 µM
[4]
  MIC: ≥ 100 µM
[5]
  MIC: ≥ 100 µM

## CC[C@H](C)[C@H](NC(=O)[C@H](C)NC(=O)[C@H](CCC(=O)O)NC(=O)[C@H](CO)NC(=O)[C@H](Cc1ccccc1)NC(=O)[C@H](CCCCN)NC(=O)[C@H](Cc1ccccc1)NC(=O)[C@H](CO)NC(=O)[C@H](CCC(=O)O)NC(=O)[C@H](C)NC(=O)[C@@H](NC(=O)[C@H](CCCCN)NC(=O)[C@H](CCCCN)NC(=O)[C@@H](NC(=O)[C@@H](NC(=O)[C@H](CC(=O)O)NC(=O)[C@H](Cc1ccccc1)NC(=O)[C@H](CC(C)C)NC(=O)CN)[C@@H](C)CC)[C@@H](C)CC)[C@@H](C)CC)C(=O)N[C@@H](CCCCN)C(=O)N[C@@H](CCCCN)C(=O)N[C@H](C(=O)N[C@H](C(=O)N[C@@H](CC(=O)O)C(=O)N[C@@H](Cc1ccccc1)C(=O)N[C@@H](CC(C)C)C(=O)NCC(=O)O)[C@@H](C)CC)[C@@H](C)CC [GLFDIIKKIAESFKFSEAIKKIIDFLG]
[6]
  MIC: ≥ 128 µM
[7]
  MIC: 128 µM (≈ 393 µg/mL)
[8]
  MIC: > 128 µM

## CC[C@H](C)[C@H](NC(=O)[C@H](CCCCN)NC(=O)[C@H](CCCCN)NC(=O)[C@H](Cc1ccccc1)NC(=O)[C@H](CC(C)C)NC(=O)[C@H](CCCCN)NC(=O)[C@H](Cc1c[nH]c2ccccc12)NC(=O)[C@@H](N)CCCCN)C(=O)N1CCC[C@H]1C(=O)N[C@@H](Cc1cnc[nH]1)C(=O)N[C@@H](CC(C)C)C(=O)N[C@@H](C)C(=O)N[C@@H](CCCCN)C(=O)N[C@@H](CCCCN)C(=O)N[C@@H](Cc1ccccc1)C(N)=O [KWKLFKKIPHLAKKF]
[9]
  MIC: 12.5 µM (≈ 23.9 µg/mL)
[10]
  MIC: 12.5 µM (≈ 23.9 µg/mL)
[11]
  MIC: 6.25 µM (≈ 11.9 µg/mL)
[12]
  MIC: 0.78 µM (≈ 1.49 µg/mL)
Proteus vulgaris
  MIC: 1.56 µM (≈ 2.98 µg/mL)
[13]
  MIC: 3.12 µM (≈ 5.97 µg/mL)

## CC[C@H](C)[C@H](NC(=O)[C@H](CCCN=C(N)N)NC(=O)[C@@H](N)CCCN=C(N)N)C(=O)N[C@@H](CCCN=C(N)N)C(=O)N1CCC[C@H]1C(=O)N[C@@H](CCCN=C(N)N)C(=O)N1CCC[C@H]1C(=O)N1CCC[C@H]1C(=O)N[C@@H](CCCN=C(N)N)C(=O)N[C@@H](CC(C)C)C(=O)N1CCC[C@H]1C(=O)N[C@@H](CCCN=C(N)N)C(=O)N1CCC[C@H]1C(=O)N[C@@H](CCCN=C(N)N)C(=O)N1CCC[C@H]1C(=O)N[C@@H](CCCN=C(N)N)C(=O)O [RRIRPRPPRLPRPRPR]
[14]
  MIC: 0.12 µM (≈ 0.249 µg/mL)
Pseudomonas aeruginosa
  MIC: 90.5 µM (≈ 188 µg/mL)
[15]
  MIC: 4 µM (≈ 8.31 µg/mL)
[16]
  MIC: > 64 µM
Escherichia coli J2210
  MIC: 0.12 µM (≈ 0.249 µg/mL)
Escherichia coli ML-35
  MIC: 2 µM (≈ 4.15 µg/mL)
[2]
  MIC: > 64 µM
[17]
  MIC: 0.06 µM (≈ 0.125 µg/mL)
Klebsiella pneumoniae
  MIC: 4 µM (≈ 8.31 µg/mL)
[18]
  MIC: 1 µM (≈ 2.08 µg/mL)
Acinetobacter baumannii
  MIC: 5.66 µM (≈ 11.7 µg/mL)
Escherichia coli
  MIC: 8 µM (≈ 16.6 µg/mL)
[19]
  MIC: 8 µM (≈ 16.6 µg/mL)
[20]
  MIC: > 64 µM
[21]
  MIC: 32 µM (≈ 66.4 µg/mL)
[22]
  MIC: 0.06 µM (≈ 0.125 µg/mL)
[23]
  MIC: 0.083 µM (≈ 0.172 µg/mL)
Burkholderia cepacia
  MIC: ≥ 128 µM
Escherichia coli HB101
  MIC: 0.5 µM (≈ 1.04 µg/mL)
[24]
  MIC: ≥ 64 µM
Escherichia coli JW0013
  MIC: 0.06 µM (≈ 0.125 µg/mL)
[25]
  MIC: 1 µM (≈ 2.08 µg/mL)
Escherichia coli MC1041
  MIC: 0.06 µM (≈ 0.125 µg/mL)
[26]
  MIC: 1 µM (≈ 2.08 µg/mL)
Escherichia coli JJ2489
  MIC: 0.12 µM (≈ 0.249 µg/mL)
Escherichia coli BW25113
  MIC: 0.06 µM (≈ 0.125 µg/mL)
[7]
  MIC: 1 µM (≈ 2.08 µg/mL)
[8]
  MIC: > 128 µM

## CC(C)[C@@H]1NC(=O)[C@H](CCCN=C(N)N)NC(=O)[C@H](Cc2ccccc2)NC(=O)[C@@H](NC(=O)[C@H](Cc2c[nH]c3ccccc23)NC(=O)[C@H](CCCN=C(N)N)NC(=O)[C@@H](N)CCCN=C(N)N)CSSC[C@@H](C(=O)N[C@@H](CCCN=C(N)N)C(N)=O)NC(=O)[C@H](CCCCN)NC(=O)[C@H](CCCN=C(N)N)NC(=O)[C@H](Cc2ccc(O)cc2)NC(=O)[C@@H]2CSSC[C@H](NC1=O)C(=O)N[C@@H](Cc1ccc(O)cc1)C(=O)N[C@@H](CCCN=C(N)N)C(=O)NCC(=O)N[C@@H](CCCN=C(N)N)C(=O)N[C@@H](Cc1ccccc1)C(=O)N2 [RRWCFRVCYRGRFCYRKCR]
[27]
  MIC: 0.0956 µM (≈ 0.25 µg/mL)
[28]
  MIC: 0.382 µM (≈ 0.998 µg/mL)
Escherichia coli UB1005
  MIC: 0.0956 µM (≈ 0.25 µg/mL)
[29]
  MIC: 0.382 µM (≈ 0.998 µg/mL)
Escherichia coli DC2
  MIC: 0.0956 µM (≈ 0.25 µg/mL)
[20]
  MIC: 0.191 µM (≈ 0.499 µg/mL)
[30]
  MIC: 0.382 µM (≈ 0.998 µg/mL)
[31]
  MIC: 0.191 µM (≈ 0.499 µg/mL)
[32]
  MIC: 0.382 µM (≈ 0.998 µg/mL)
Candida albicans
  MIC: 0.765 µM (≈ 2 µg/mL)
[33]
  MIC: 0.191 µM (≈ 0.499 µg/mL)
Escherichia coli KF130
  MIC: 0.0956 µM (≈ 0.25 µg/mL)
[8]
  MIC: 0.382 µM (≈ 0.998 µg/mL)
